From PubChem BioAssay AID248 (DTP/NCI, 2004)
Several values for one entry are separate records, joined by “and”; a condition that tells them apart may be missing. Equal values may be shown once. Toxic doses and inconclusive results are not listed. No stated cut-off is given here; in the data, active means T/C of 150% or more; inactive means T/C below 125%.

Test system: L1210 leukemia ip in BDF1 mice, survival T/C
Test: NCI In Vivo Anticancer Drug Screen. Data for tumor model L1210 Leukemia (intraperitoneal) in B6D2F1 (BDF1) mice
Conditions: endpoint: mean survival time, higher = longer survival
Procedure, shortened: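 Survival endpoint. Drug-treated group vs vehicle group, expressed as T divided by C. Tumor passaged by transplantation.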

[1] = dose: 75.0 mg/kg/injection, schedule: Q01DX001 (ip), vehicle: saline
[2] = dose: 150.0 mg/kg/injection, schedule: Q01DX001 (ip), vehicle: saline
[3] = dose: 300.0 mg/kg/injection, schedule: Q01DX001 (ip), vehicle: saline
[4] = dose: 100.0 mg/kg/injection, schedule: Q04DX002 (ip), vehicle: Klucel (hydroxypropylcellulose) (HPC)
[5] = dose: 200.0 mg/kg/injection, schedule: Q04DX002 (ip), vehicle: Klucel (hydroxypropylcellulose) (HPC)
[6] = dose: 400.0 mg/kg/injection, schedule: Q04DX002 (ip), vehicle: Klucel (hydroxypropylcellulose) (HPC)
[7] = dose: 100.0 mg/kg/injection, schedule: Q04DX003 (ip), vehicle: saline
[8] = dose: 200.0 mg/kg/injection, schedule: Q04DX003 (ip), vehicle: saline
[9] = dose: 400.0 mg/kg/injection, schedule: Q04DX003 (ip), vehicle: saline
[10] = dose: 100.0 mg/kg/injection, schedule: Q01DX001 (ip), vehicle: carboxymethylcellulose (CMC)
[11] = dose: 200.0 mg/kg/injection, schedule: Q01DX001 (ip), vehicle: carboxymethylcellulose (CMC)
[12] = dose: 100.0 mg/kg/injection, schedule: Q01DX001 (ip), vehicle: Klucel (hydroxypropylcellulose) (HPC)
[13] = dose: 200.0 mg/kg/injection, schedule: Q01DX001 (ip), vehicle: Klucel (hydroxypropylcellulose) (HPC)
[14] = dose: 400.0 mg/kg/injection, schedule: Q01DX001 (ip), vehicle: Klucel (hydroxypropylcellulose) (HPC)
[15] = dose: 400.0 mg/kg/injection, schedule: Q01DX001 (ip), vehicle: carboxymethylcellulose (CMC)
[16] = dose: 100.0 mg/kg/injection, schedule: Q04DX003 (ip), vehicle: saline with Tween-80
[17] = dose: 200.0 mg/kg/injection, schedule: Q04DX003 (ip), vehicle: saline with Tween-80
[18] = dose: 400.0 mg/kg/injection, schedule: Q04DX003 (ip), vehicle: saline with Tween-80
[19] = dose: 50.0 mg/kg/injection, schedule: Q01DX009 (ip), vehicle: saline with Tween-80
[20] = dose: 50.0 mg/kg/injection, schedule: Q04DX003 (ip), vehicle: saline with Tween-80
[21] = dose: 100.0 mg/kg/injection, schedule: Q01DX001 (ip), vehicle: saline with Tween-80
[22] = dose: 100.0 mg/kg/injection, schedule: Q01DX009 (ip), vehicle: saline with Tween-80
[23] = dose: 200.0 mg/kg/injection, schedule: Q01DX001 (ip), vehicle: saline with Tween-80
[24] = dose: 200.0 mg/kg/injection, schedule: Q01DX009 (ip), vehicle: saline with Tween-80
[25] = dose: 400.0 mg/kg/injection, schedule: Q01DX009 (ip), vehicle: saline with Tween-80
[26] = dose: 50.0 mg/kg/injection, schedule: Q04DX002 (ip), vehicle: Klucel (hydroxypropylcellulose) (HPC)
[27] = dose: 400.0 mg/kg/injection, schedule: Q01DX001 (ip), vehicle: saline with Tween-80

Measured: T/C

CCCCCCC(=O)OCc1ccc(-c2ccccc2)cc1
inactive: [1] 90 % of control | [2] 87 % of control | [3] 92 % of control

CC1(C)C2CCC1(C)C(OCC(=O)O)C2 (centres undefined)
inactive: [4] 96 % of control | [5] 121 % of control | [6] 102 % of control

Cc1cccc[n+]1Cc1cc(=O)[nH]c(=O)[nH]1
inactive: [7] 101 % of control | [8] 98 % of control | [9] 98 % of control

COCCCNP(=S)(N1CC1)N1CC1
inactive: dose: 2.0 mg/kg/injection, schedule: Q01DX Z (ip), vehicle: saline 92 % of control | dose: 4.0 mg/kg/injection, schedule: Q01DX Z (ip), vehicle: saline 116 % of control

Cc1ccc(S(=O)(=O)NC(CO)C(=O)O)cc1 (centres undefined)
inactive: dose: 37.5 mg/kg/injection, schedule: Q01DX009 (ip), vehicle: saline 96 % of control | [1] 103 % of control | dose: 75.0 mg/kg/injection, schedule: Q01DX009 (ip), vehicle: saline 98 % of control | dose: 75.0 mg/kg/injection, schedule: Q04DX003 (ip), vehicle: saline 102 % of control | [2] 92 % of control | dose: 150.0 mg/kg/injection, schedule: Q01DX009 (ip), vehicle: saline 106 % of control | dose: 150.0 mg/kg/injection, schedule: Q04DX003 (ip), vehicle: saline 103 % of control | [3] 98 % of control | dose: 300.0 mg/kg/injection, schedule: Q04DX003 (ip), vehicle: saline 102 % of control

O=C1OC2CC3CCC2C13 (centres undefined)
inactive: dose: 6.25 mg/kg/injection, schedule: Q01DX001 (ip), vehicle: saline 96 % of control | dose: 12.5 mg/kg/injection, schedule: Q01DX001 (ip), vehicle: saline 96 % of control | dose: 25.0 mg/kg/injection, schedule: Q01DX001 (ip), vehicle: saline 98 % of control

C=C(C)[C@@H](/C=C/[C@@H](C)[C@H]1CC[C@H]2C3=CC[C@H]4C[C@@H](O)CC[C@]4(C)[C@H]3CC[C@]12C)CC
inactive: [10] 96 % of control | [11] 100 % of control

CCOc1c(OC)c2c3c(c(-c4c(C)cc5c(C(C)C)c(OCC)c(OC)c6c5c4OC6OC)c(C)cc3c1C(C)C)OC2OC (centres undefined)
inactive: [12] 94 % of control | [13] 93 % of control | [14] 100 % of control

CCc1ccc(N=Nc2c(F)c(F)c(NC(C)=O)c(F)c2F)cc1
inactive: [10] 102 % of control | [11] 91 % of control | [15] 91 % of control

CC1(C)OC2OC(COC(=O)c3ccccc3)C(OC(=O)Nc3ccccc3)C2O1 (centres undefined)
inactive: [16] 93 % of control | [17] 98 % of control | [18] 97 % of control

CCNS(=O)(=O)c1ccc(Cl)c([N+](=O)[O-])c1
inactive: [12] 101 % of control | [13] 102 % of control | [14] 107 % of control

CNc1ccc(/C=C2\C=Cc3ccccc32)cc1I
inactive: [10] 95 % of control | [11] 95 % of control | [15] 101 % of control

CC(C)C(=O)c1ccc(Cl)s1
inactive: dose: 100.0 mg/kg/injection, schedule: Q04DX003 (sc), vehicle: olive oil, sesame oil, peanut oil 104 % of control | dose: 200.0 mg/kg/injection, schedule: Q04DX003 (sc), vehicle: olive oil, sesame oil, peanut oil 107 % of control | dose: 400.0 mg/kg/injection, schedule: Q04DX003 (sc), vehicle: olive oil, sesame oil, peanut oil 96 % of control

CNC(=S)N/N=C(\C=N\NC(=S)NC)c1ccc(C)cc1
inactive: [4] 106 % of control | [5] 100 % of control | [6] 103 % of control

CCOC(=O)CC1NCCc2c1[nH]c1ccccc21 (centres undefined)
inactive: dose: 6.25 mg/kg/injection, schedule: Q01DX001 (ip), vehicle: saline sonified 93 % of control | dose: 12.5 mg/kg/injection, schedule: Q01DX001 (ip), vehicle: saline sonified 98 % of control | dose: 25.0 mg/kg/injection, schedule: Q01DX001 (ip), vehicle: saline sonified 97 % of control

Nc1ccnc2snnc12
inactive: [19] 96 % of control | [20] 93 % of control | [21] 111 % of control | [22] 90 % of control | [16] 102 % of control | [23] 98 % of control | [24] 95 % of control | [17] 107 % of control

CN1N=C(c2ccccc2)CC1=O
inactive: [12] 103 % of control | [13] 108 % of control | [14] 97 % of control

CCCNC(=O)Nc1ccc(C)c(Cl)c1
inactive: [22] 100 % of control | [16] 108 % of control | [24] 96 % of control | [17] 101 % of control | [25] 100 % of control | [18] 95 % of control

CC(C)=CCC1(CC=C(C)C)C(=O)N(c2ccccc2)N(c2ccccc2)C1=O
inactive: [26] 93 % of control | dose: 100.0 mg/kg/injection, schedule: Q01DX009 (ip), vehicle: Klucel (hydroxypropylcellulose) (HPC) 93 % of control | [4] 101 % of control | dose: 200.0 mg/kg/injection, schedule: Q01DX009 (ip), vehicle: Klucel (hydroxypropylcellulose) (HPC) 98 % of control | [5] 97 % of control | dose: 400.0 mg/kg/injection, schedule: Q01DX009 (ip), vehicle: Klucel (hydroxypropylcellulose) (HPC) 90 % of control

CCCP(C)(C)=S
inactive: [4] 90 % of control | [5] 90 % of control

CSc1nc(N)nc2c1ncn2CCCl
inactive: [7] 103 % of control | [8] 96 % of control | [9] 97 % of control

CCOC(=O)C(=O)CC1CCCCC1
inactive: [19] 92 % of control | [22] 100 % of control | [24] 100 % of control

COc1cc(N)c(OC)nn1
inactive: dose: 100.0 mg/kg/injection, schedule: Q01DX001 (ip), vehicle: other 105 % of control | dose: 200.0 mg/kg/injection, schedule: Q01DX001 (ip), vehicle: other 96 % of control | dose: 400.0 mg/kg/injection, schedule: Q01DX001 (ip), vehicle: other 93 % of control

COC1OC(COS(=O)(=O)c2ccc(C)cc2)C(OC(=O)c2ccccc2)C(OC(=O)c2ccccc2)C1OS(=O)(=O)c1ccc(C)cc1 (centres undefined)
inactive: dose: 25.0 mg/kg/injection, schedule: Q04DX002 (ip), vehicle: Klucel (hydroxypropylcellulose) (HPC) 88 % of control | [26] 95 % of control | [4] 88 % of control | [5] 109 % of control and 88 % of control | [6] 109 % of control

CCNc1cc(Cl)nc(N)n1
inactive: [22] 92 % of control | [16] 105 % of control | [24] 101 % of control | [17] 98 % of control | [25] 104 % of control | [18] 104 % of control

CCN1CC(=O)N(C)C1=S
inactive: dose: 50.0 mg/kg/injection, schedule: Q01DX001 (ip), vehicle: carboxymethylcellulose (CMC) 103 % of control | [10] 100 % of control | [11] 97 % of control | [15] 118 % of control

CCOC(=O)C(=O)C1CCNC1=O (centres undefined)
inactive: dose: 12.5 mg/kg/injection, schedule: Q04DX003 (ip), vehicle: saline with Tween-80 92 % of control | dose: 25.0 mg/kg/injection, schedule: Q04DX003 (ip), vehicle: saline with Tween-80 95 % of control | [20] 97 % of control

O=C(O)NNC(=O)NO
inactive: [21] 94 % of control | [23] 94 % of control | [27] 92 % of control

O=c1[nH]cc(Cc2ccc(O)cc2)c(=O)[nH]1
inactive: dose: 50.0 mg/kg/injection, schedule: Q01DX005 (ip), vehicle: saline with Tween-80 106 % of control | dose: 100.0 mg/kg/injection, schedule: Q01DX005 (ip), vehicle: saline with Tween-80 101 % of control | dose: 200.0 mg/kg/injection, schedule: Q01DX005 (ip), vehicle: saline with Tween-80 98 % of control | dose: 400.0 mg/kg/injection, schedule: Q01DX005 (ip), vehicle: saline with Tween-80 109 % of control

CCCCCCCCCCCC(=O)NC(=O)N1CCOCC1
inactive: [21] 101 % of control | [22] 97 % of control | [23] 101 % of control | [24] 98 % of control | [27] 94 % of control | [25] 93 % of control
